This note sets out measurements from patent US20100152188A1, “Novel Heterocyclic Compounds” (priority 2005, published 2010).

A value given as a limit tells only on which side of the number the result lay.

For orientation: melting point means the temperature of the solid-liquid transition. What is called GI50 is the concentration giving 50% growth inhibition. In general, LC50 refers to the concentration that kills 50% of the test population.

The subject of one series is HDAC. Put plainly: HDAC inhibition. It is filed as biochemical. The settings on record: for HDAC Inhibition 1 μM: compound at 1 μM; for HDAC Inhibition 10 μM: compound at 10 μM.
The test system of a further series is HCT116. Put plainly: Anti-cancer screen (MTT), HCT116. The settings on record: Homo sapiens, HCT-116, 48 hours with compound, tested at 0.01-100 µM. The class given is cell-based. The method in brief:
(§1)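 Cells (5000/well) in DMEM with 10% FBS were seeded 24 h, then exposed to compounds at 0.01, 0.1, 1, 10 and 100 µM in triplicate for 48 h at 37 °C. MTT was added for 3 h, formazan dissolved in DMSO and absorbance read at 570 nm; GI50, TGI and LC50 derived from % growth versus T0.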

For another series, the system named is MDAMB-231/U 251. Put plainly: Anti-cancer screen (MTT), MDAMB-231/U 251. It is filed as cell-based. The method in brief: as §1
Series [1] has as its system NCIH460, HCT116, MDAMB-231/U 251. Put plainly: Anti-cancer screen, mean GI50 over the cell lines. It is filed as cell-based. The following applies: in µM. In outline: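 HCT116, NCIH460 and U251 cells (5000/well) were seeded for 24 h, then exposed in triplicate to 0.01, 0.1, 1, 10 and 100 µM final compound for 48 h. Viability was read by MTT (3 h, absorbance 570 nm), and percent growth was calculated against untreated controls and a T0 plate read at compound addition.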

Another series has as its system NCIH460. Put plainly: Anti-cancer screen (MTT), NCIH460. It is filed as cell-based. The following applies: Homo sapiens, NCI-H460, 48 hours with compound, tested at 0.01-100 µM. In outline:
as §1

[2] abbreviates: 48 hours with compound, MTT, tested at 0.01-100 µM.

Regarding `O=C(NCc1ccc(C(=O)N2CCN(c3ccccn3)CC2)cc1)OCc1cccs1` [Example 71, 2-Thienylmethyl{4-[(4-pyridin-2-ylpiperazin-1-yl)carbonyl]benzyl}carbamate], the melting point was in the range of 129.3 to 130.3 °C. For the same molecule, in the series with HDAC, the “HDAC Inhibition 1 μM” value is 9.14 and the “HDAC Inhibition 10 μM” value is 7.67.

The molecule `O=C(NCc1ccc(C(=O)N2CCN(c3ncccn3)CC2)cc1)OCc1cccs1` [Example 72, 2-Thienylmethyl{4-[(4-pyrimidin-2-ylpiperazin-1-yl)carbonyl]benzyl}carbamate] gave a melting point of 143.6 to 144.6 °C. Also, in the series on HDAC, the “HDAC Inhibition 1 μM” value is 8.08 and the “HDAC Inhibition 10 μM” value amounted to 8.40.

The molecule `O=C(NCc1ccc(C(=O)N2CCC[C@H]2C(=O)NO)cc1)OCc1cccs1` [Example 99, 2-Thienylmethyl[4-({(2S)-2-[(hydroxyamino)carbonyl]pyrrolidin-1-yl}carbonyl)benzyl]carbamate] yielded a melting point of 90.6 to 91.5 °C.

Take `O=C(NCc1ccc(C(=O)N[C@@H](Cc2ccc(O)cc2)C(=O)NO)cc1)OCc1cccs1` [Example 100, 2-Thienylmethyl[4-({[2-(hydroxyamino)-1-(4-hydroxybenzyl)-2-oxoethyl]amino}carbonyl)benzyl]carbamate]: the melting point lay within 162.6 to 163.4 °C. In the series with HDAC, the “HDAC Inhibition 1 μM” value came to 13.63 and the “HDAC Inhibition 10 μM” value came to 40.64.

On to `N/C(=N/O)c1ccc(NC(=O)OCc2cccs2)cc1` [Example 110, 2-thienylmethyl{4-[(E)-amino(hydroxyimino)-methyl]-phenyl}-carbamate], for which, in the series on HCT116, the GI50 stood at 80 µM, the IC (TGI) is above 100 µM and the LC50 (concentration giving 50% net cell kill relative to T0) was above 100 µM. The CC50 in the series with MDAMB-231/U 251 (48 h, read-out: MDAMB-231/U 251 LC50) was above 100 µM. In the series with MDAMB-231/U 251 (setting [2]), the GI50 turned out to be 10 µM and the IC (TGI) was above 100 µM. In the series on HDAC, the “HDAC Inhibition 1 μM” value is on record as 17.50 and the “HDAC Inhibition 10 μM” value is on record as 52.34. For the same molecule, in series [1], the “Mean GI50” value is above 100. In the series on NCIH460, the GI50 was above 100 µM, the IC (TGI) is above 100 µM and the LC50 is above 100 µM.
